Values quoted from earlier work in patent US20210401968A1 (priority 2018, published 2021).
Where two headings read alike, the source gives them in different places.

Legend:
[1] = biological target: T1, progesterone receptor-based transactivator (Homo sapiens, UniProt P06401); conditions: rats
T1 construct: host or cells: rats (host animal of the cited study)

[2] = test system: luciferase target gene

T1 sequence (P06401 640-891, added parts left off): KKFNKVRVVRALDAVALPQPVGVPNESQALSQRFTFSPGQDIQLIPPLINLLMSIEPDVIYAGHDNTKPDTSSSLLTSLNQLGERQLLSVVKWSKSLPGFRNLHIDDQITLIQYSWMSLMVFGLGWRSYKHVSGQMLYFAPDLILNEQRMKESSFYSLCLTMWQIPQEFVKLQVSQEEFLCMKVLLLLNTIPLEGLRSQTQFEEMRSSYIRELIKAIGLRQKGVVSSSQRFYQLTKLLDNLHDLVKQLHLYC

Which “amount giving an effective concentration” value ([1]; i.p.) does the source give for `CC#C[C@]1(O)CC[C@H]2[C@@H]3CCC4=CC(=O)CCC4=C3[C@@H](c3ccc(N(C)C)cc3)C[C@@]21C` [mifepristone] here?
The value was 5 µg/kg.

What about the “amount giving an effective concentration” value ([1]; orally) of the same compound?
The value was “about 10 μg/kg”.

And the “duration of sustained target gene expression after a single heat treatment” value [2]?
Its value is “at least 6 days”.

What about the “target gene expression after heat treatment” value [2] of the same compound?
The value was “resulted in activation of target gene expression”.
